{"source": "paper PMC10610379", "about": "“Epidrugs as Promising Tools to Eliminate Plasmodium falciparum Artemisinin-Resistant and Quiescent Parasites” (Pharmaceutics, 2023)", "key": {"[1]": {"system": "Plasmodium falciparum F32-TEM (artemisinin-sensitive twin line)", "experiment": "Standard chemosensitivity assay (SYBR Green I), F32-TEM", "format": "cell-based", "conditions": "Plasmodium falciparum; F32-TEM, 48 h incubation, SYBR Green I; mean ± SEM of 3 experiments (* mean of 2); read-out: Antiplasmodial Activity: IC50, F32-TEM", "how_it_was_run": "(§1)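 Both parasite lines grown at 2% hematocrit in human red cells with 5% human serum, 37 °C, 5% CO2, then exposed to drug for 48 h in triplicate.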"}, "[2]": {"system": "Plasmodium falciparum F32-ART (artemisinin-resistant strain)", "experiment": "Standard chemosensitivity assay (SYBR Green I), F32-ART", "format": "cell-based", "how_it_was_run": "as §1"}, "[3]": {"system": "661W", "parameters": "method as in PMID 29048427", "conditions": "data from literature ref 44, read-out: Cytotoxicity: CC50 (661W); cited from earlier work"}}, "data": [{"smiles": "CN1CCc2c(c3ccccc3n2Cc2ccc(C(=O)NO)cc2)C1", "note": "[Tubastatin A]", "values": [{"measurement": "IC50", "setting": "[1]", "value": 8, "unit": "µM"}, {"measurement": "IC50", "setting": "[2]; Plasmodium falciparum, F32-ART, 48 h incubation, SYBR Green I, mean ± SEM of 3 experiments (* mean of 2), read-out: Antiplasmodial Activity: IC50, F32-ART", "value": 7, "unit": "µM"}, {"measurement": "Selectivity Index CC50/IC50", "setting": "[2]; ratio cytotoxicity (mammalian cell type of the CC50)/antiplasmodial activity on F32-ART", "value": ">1.4"}, {"measurement": "CC50", "setting": "[3]", "value": "> 10", "unit": "µM"}]}]}
